Test results: ChEMBL document CHEMBL2412968, “Tetrazole-based deoxyamodiaquines: synthesis, ADME/PK profiling and pharmacological evaluation as potential antimalarial agents” (Bioorg Med Chem, 2013)

Key:
physchem [1] = conditions: phosphate buffered saline, pH 7.4
Plasmodium falciparum [2] = test: Antiplasmodial activity chloroquine-resistant Plasmodium falciparum W2 using YOYO-1 staining after 48 hrs by FACS analysis; format: functional, organism-based; conditions: W2, 48 h
Plasmodium falciparum [3] = test: Antiplasmodial activity chloroquine-sensitive Plasmodium falciparum 3D7 infected in human A+ erythrocytes assessed as reduction of [3H]hypoxanthine incorporation after 24 hrs by scintillation counting; format: functional, organism-based
Plasmodium falciparum [4] = test: Antiplasmodial activity chloroquine-resistant Plasmodium falciparum K1 infected in human A+ erythrocytes assessed as reduction of [3H]hypoxanthine incorporation after 24 hrs by scintillation counting; format: functional, organism-based
physchem [5] = conditions: 0.01 M HCl, pH 2

SMILES | solubility kinetic at 2 h (physchem [1]) | IC50 (Plasmodium falciparum [2]) | IC50 (Plasmodium falciparum [3]) | IC50 (Plasmodium falciparum [4]) | solubility kinetic at 2 h (physchem [5])
CC(C)(C)n1nnnc1C(c1cccc(Nc2ccnc3cc(Cl)ccc23)c1)N1CCCCC1 (centres undefined) | < 5 µM | 82 nM | 50 nM | 170 nM | > 200 µM
CC(C)(C)n1nnnc1C(c1cccc(Nc2ccnc3cc(Cl)ccc23)c1)N1CCOCC1 (centres undefined) | – | 195 nM | 99 nM | 1290 nM | –
CN(C)C(c1cccc(Nc2ccnc3cc(Cl)ccc23)c1)c1nnnn1CCN1CCOCC1 (centres undefined) | – | 544 nM | 379 nM | 379 nM | –
CCN(CC)C(c1cccc(Nc2ccnc3cc(Cl)ccc23)c1)c1nnnn1CCN1CCOCC1 (centres undefined) | – | 194 nM | 30 nM | 245 nM | –
